According to ChEMBL document CHEMBL3124843, “Synthesis, cytostatic, antimicrobial, and anti-HCV activity of 6-substituted 7-(het)aryl-7-deazapurine ribonucleosides” (J Med Chem, 2014):
pIC50: −log10 of the molar value.

System: Mycobacterium tuberculosis
Test: Antimycobacterial activity against Mycobacterium bovis BCG after 5 days by MTT assay
Assay type: functional, organism-based
Details: variant bovis BCG, 120 h

SMILES	pIC50
Nc1nc2c(c(-c3ccsc3)cn2[C@@H]2O[C@H](CO)[C@@H](O)[C@H]2O)c(=O)[nH]1	< 4.00
CN(C)c1ncnc2c1c(-c1cccs1)cn2[C@@H]1O[C@H](CO)[C@@H](O)[C@H]1O	< 4.00
COc1nc(N)nc2c1c(-c1cccs1)cn2[C@@H]1O[C@H](CO)[C@@H](O)[C@H]1O	< 4.00
Cc1ncnc2c1c(-c1cccs1)cn2[C@@H]1O[C@H](CO)[C@@H](O)[C@H]1O	4.85
CN(C)c1ncnc2c1c(-c1ccsc1)cn2[C@@H]1O[C@H](CO)[C@@H](O)[C@H]1O	< 4.00
COc1ncnc2c1c(I)cn2[C@@H]1O[C@H](CO)[C@@H](O)[C@H]1O	< 4.00
CSc1ncnc2c1c(-c1cccs1)cn2[C@@H]1O[C@H](CO)[C@@H](O)[C@H]1O	< 4.00
CN(C)c1ncnc2c1c(-c1cc3ccccc3o1)cn2[C@@H]1O[C@H](CO)[C@@H](O)[C@H]1O	< 4.00
Cc1ncnc2c1c(-c1ccccc1)cn2[C@@H]1O[C@H](CO)[C@@H](O)[C@H]1O	4.58
Cc1ncnc2c1ccn2[C@@H]1O[C@H](CO)[C@@H](O)[C@H]1O	6.52
C#Cc1cn([C@@H]2O[C@H](CO)[C@@H](O)[C@H]2O)c2ncnc(C)c12	4.37
Cc1ncnc2c1c(-c1ccco1)cn2[C@@H]1O[C@H](CO)[C@@H](O)[C@H]1O	4.41
O=c1[nH]cnc2c1c(-c1ccoc1)cn2[C@@H]1O[C@H](CO)[C@@H](O)[C@H]1O	< 4.00
Cc1nc(N)c2c(-c3ccoc3)cn([C@@H]3O[C@H](CO)[C@@H](O)[C@H]3O)c2n1	< 4.00
Nc1nc2c(c(-c3cc4ccccc4o3)cn2[C@@H]2O[C@H](CO)[C@@H](O)[C@H]2O)c(=O)[nH]1	< 4.00
Nc1nc(N)c2c(-c3ccsc3)cn([C@@H]3O[C@H](CO)[C@@H](O)[C@H]3O)c2n1	< 4.00
CSc1ncnc2c1c(I)cn2[C@@H]1O[C@H](CO)[C@@H](O)[C@H]1O	4.06
Cc1nc(N)c2c(-c3cc4ccccc4o3)cn([C@@H]3O[C@H](CO)[C@@H](O)[C@H]3O)c2n1	< 4.00
Cc1nc(N)c2c(-c3ccsc3)cn([C@@H]3O[C@H](CO)[C@@H](O)[C@H]3O)c2n1	< 4.00
CNc1ncnc2c1c(-c1ccccc1)cn2[C@@H]1O[C@H](CO)[C@@H](O)[C@H]1O	< 4.00
COc1nc(N)nc2c1c(-c1ccccc1)cn2[C@@H]1O[C@H](CO)[C@@H](O)[C@H]1O	< 4.00

SMILES	pIC50
Nc1nc2c(c(-c3ccoc3)cn2[C@@H]2O[C@H](CO)[C@@H](O)[C@H]2O)c(=O)[nH]1	< 4.00
CN(C)c1ncnc2c1c(I)cn2[C@@H]1O[C@H](CO)[C@@H](O)[C@H]1O	< 4.00
Cc1nc(N)c2c(-c3cccs3)cn([C@@H]3O[C@H](CO)[C@@H](O)[C@H]3O)c2n1	4.08
Cc1ncnc2c1c(-c1cc3ccccc3o1)cn2[C@@H]1O[C@H](CO)[C@@H](O)[C@H]1O	5.68
Cc1ncnc2c1c(-c1ccsc1)cn2[C@@H]1O[C@H](CO)[C@@H](O)[C@H]1O	4.73
COc1ncnc2c1c(-c1ccco1)cn2[C@@H]1O[C@H](CO)[C@@H](O)[C@H]1O	< 4.00
CNc1ncnc2c1c(-c1cc3ccccc3o1)cn2[C@@H]1O[C@H](CO)[C@@H](O)[C@H]1O	< 4.00
Nc1nc(N)c2c(-c3cc4ccccc4o3)cn([C@@H]3O[C@H](CO)[C@@H](O)[C@H]3O)c2n1	4.61
C#Cc1cn([C@@H]2O[C@H](CO)[C@@H](O)[C@H]2O)c2nc(C)nc(N)c12	< 4.00
CNc1ncnc2c1ccn2[C@@H]1O[C@H](CO)[C@@H](O)[C@H]1O	4.06
Nc1nc2c(c(-c3ccccc3)cn2[C@@H]2O[C@H](CO)[C@@H](O)[C@H]2O)c(=O)[nH]1	< 4.00
COc1ncnc2c1c(-c1ccsc1)cn2[C@@H]1O[C@H](CO)[C@@H](O)[C@H]1O	< 4.00
Nc1nc2c(c(-c3cccs3)cn2[C@@H]2O[C@H](CO)[C@@H](O)[C@H]2O)c(=O)[nH]1	< 4.00
CSc1ncnc2c1c(-c1ccoc1)cn2[C@@H]1O[C@H](CO)[C@@H](O)[C@H]1O	< 4.00
C#Cc1cn([C@@H]2O[C@H](CO)[C@@H](O)[C@H]2O)c2ncnc(OC)c12	< 4.00
Nc1nc2c(c(-c3ccco3)cn2[C@@H]2O[C@H](CO)[C@@H](O)[C@H]2O)c(=O)[nH]1	< 4.00
C#Cc1cn([C@@H]2O[C@H](CO)[C@@H](O)[C@H]2O)c2ncnc(N(C)C)c12	< 4.00
Cc1nc(N)c2ccn([C@@H]3O[C@H](CO)[C@@H](O)[C@H]3O)c2n1	< 4.00
COc1nc(N)nc2c1c(-c1ccoc1)cn2[C@@H]1O[C@H](CO)[C@@H](O)[C@H]1O	< 4.00
CSc1ncnc2c1c(-c1cc3ccccc3o1)cn2[C@@H]1O[C@H](CO)[C@@H](O)[C@H]1O	< 4.00
CNc1ncnc2c1c(-c1ccco1)cn2[C@@H]1O[C@H](CO)[C@@H](O)[C@H]1O	< 4.00

SMILES	pIC50
COc1nc(N)nc2c1c(-c1ccsc1)cn2[C@@H]1O[C@H](CO)[C@@H](O)[C@H]1O	< 4.00
Nc1ncnc2c1c(-c1ccco1)cn2[C@@H]1O[C@H](CO)[C@@H](O)[C@H]1O	4.76
O=c1[nH]cnc2c1c(-c1ccccc1)cn2[C@@H]1O[C@H](CO)[C@@H](O)[C@H]1O	< 4.00
COc1ncnc2c1c(-c1cc3ccccc3o1)cn2[C@@H]1O[C@H](CO)[C@@H](O)[C@H]1O	4.13
Nc1nc(N)c2c(-c3ccco3)cn([C@@H]3O[C@H](CO)[C@@H](O)[C@H]3O)c2n1	4.08
Nc1nc(N)c2c(-c3ccccc3)cn([C@@H]3O[C@H](CO)[C@@H](O)[C@H]3O)c2n1	5.07
CSc1ncnc2c1c(-c1ccccc1)cn2[C@@H]1O[C@H](CO)[C@@H](O)[C@H]1O	< 4.00
CN(C)c1ncnc2c1c(-c1ccoc1)cn2[C@@H]1O[C@H](CO)[C@@H](O)[C@H]1O	< 4.00
C#Cc1cn([C@@H]2O[C@H](CO)[C@@H](O)[C@H]2O)c2ncnc(NC)c12	< 4.00
COc1ncnc2c1ccn2[C@@H]1O[C@H](CO)[C@@H](O)[C@H]1O	< 4.00
C#Cc1cn([C@@H]2O[C@H](CO)[C@@H](O)[C@H]2O)c2nc(N)nc(OC)c12	< 4.00
CN(C)c1ncnc2c1ccn2[C@@H]1O[C@H](CO)[C@@H](O)[C@H]1O	< 4.00
CNc1ncnc2c1c(-c1ccoc1)cn2[C@@H]1O[C@H](CO)[C@@H](O)[C@H]1O	< 4.00
Cc1nc(N)c2c(-c3ccco3)cn([C@@H]3O[C@H](CO)[C@@H](O)[C@H]3O)c2n1	< 4.00
CN(C)c1ncnc2c1c(-c1ccco1)cn2[C@@H]1O[C@H](CO)[C@@H](O)[C@H]1O	< 4.00
Nc1ncnc2c1c(-c1cccs1)cn2[C@@H]1O[C@H](CO)[C@@H](O)[C@H]1O	5.33
Cc1ncnc2c1c(I)cn2[C@@H]1O[C@H](CO)[C@@H](O)[C@H]1O	4.29
C#Cc1cn([C@@H]2O[C@H](CO)[C@@H](O)[C@H]2O)c2ncnc(SC)c12	< 4.00
COc1nc(N)nc2c1c(-c1ccco1)cn2[C@@H]1O[C@H](CO)[C@@H](O)[C@H]1O	< 4.00
Nc1nc(N)c2c(-c3cccs3)cn([C@@H]3O[C@H](CO)[C@@H](O)[C@H]3O)c2n1	5.61
COc1ncnc2c1c(-c1ccoc1)cn2[C@@H]1O[C@H](CO)[C@@H](O)[C@H]1O	< 4.00

SMILES	pIC50
COc1ncnc2c1c(-c1ccccc1)cn2[C@@H]1O[C@H](CO)[C@@H](O)[C@H]1O	< 4.00
CSc1ncnc2c1ccn2[C@@H]1O[C@H](CO)[C@@H](O)[C@H]1O	4.01
Cc1nc(N)c2c(I)cn([C@@H]3O[C@H](CO)[C@@H](O)[C@H]3O)c2n1	< 4.00
Cc1ncnc2c1c(Br)cn2[C@@H]1O[C@H](CO)[C@@H](O)[C@H]1O	4.68
COc1ncnc2c1c(-c1cccs1)cn2[C@@H]1O[C@H](CO)[C@@H](O)[C@H]1O	< 4.00
CNc1ncnc2c1c(-c1cccs1)cn2[C@@H]1O[C@H](CO)[C@@H](O)[C@H]1O	< 4.00
CNc1ncnc2c1c(-c1ccsc1)cn2[C@@H]1O[C@H](CO)[C@@H](O)[C@H]1O	< 4.00
Cc1ncnc2c1c(-c1ccoc1)cn2[C@@H]1O[C@H](CO)[C@@H](O)[C@H]1O	5.03
CN(C)c1ncnc2c1c(-c1ccccc1)cn2[C@@H]1O[C@H](CO)[C@@H](O)[C@H]1O	< 4.00
O=c1[nH]cnc2c1c(-c1ccco1)cn2[C@@H]1O[C@H](CO)[C@@H](O)[C@H]1O	< 4.00
O=c1[nH]cnc2c1c(-c1ccsc1)cn2[C@@H]1O[C@H](CO)[C@@H](O)[C@H]1O	< 4.00
Cc1nc(N)c2c(-c3ccccc3)cn([C@@H]3O[C@H](CO)[C@@H](O)[C@H]3O)c2n1	< 4.00
CNc1ncnc2c1c(I)cn2[C@@H]1O[C@H](CO)[C@@H](O)[C@H]1O	4.00
CSc1ncnc2c1c(-c1ccsc1)cn2[C@@H]1O[C@H](CO)[C@@H](O)[C@H]1O	4.01
O=c1[nH]cnc2c1c(-c1cc3ccccc3o1)cn2[C@@H]1O[C@H](CO)[C@@H](O)[C@H]1O	< 4.00
O=c1[nH]cnc2c1c(-c1cccs1)cn2[C@@H]1O[C@H](CO)[C@@H](O)[C@H]1O	< 4.00
COc1nc(N)nc2c1c(-c1cc3ccccc3o1)cn2[C@@H]1O[C@H](CO)[C@@H](O)[C@H]1O	< 4.00
CSc1ncnc2c1c(-c1ccco1)cn2[C@@H]1O[C@H](CO)[C@@H](O)[C@H]1O	< 4.00
Nc1nc(N)c2c(-c3ccoc3)cn([C@@H]3O[C@H](CO)[C@@H](O)[C@H]3O)c2n1	4.15
